Values of other authors, collected in US20260210975A1, “DIAGNOSIS AND TREATMENT OF LONG-COVID” (priority 2022, published 2026).
Read-outs that look alike come from different tables or passages of the source.

Molecular target: KCNH2 (Homo sapiens, UniProt Q12809)
Sequence (Q12809 whole entry): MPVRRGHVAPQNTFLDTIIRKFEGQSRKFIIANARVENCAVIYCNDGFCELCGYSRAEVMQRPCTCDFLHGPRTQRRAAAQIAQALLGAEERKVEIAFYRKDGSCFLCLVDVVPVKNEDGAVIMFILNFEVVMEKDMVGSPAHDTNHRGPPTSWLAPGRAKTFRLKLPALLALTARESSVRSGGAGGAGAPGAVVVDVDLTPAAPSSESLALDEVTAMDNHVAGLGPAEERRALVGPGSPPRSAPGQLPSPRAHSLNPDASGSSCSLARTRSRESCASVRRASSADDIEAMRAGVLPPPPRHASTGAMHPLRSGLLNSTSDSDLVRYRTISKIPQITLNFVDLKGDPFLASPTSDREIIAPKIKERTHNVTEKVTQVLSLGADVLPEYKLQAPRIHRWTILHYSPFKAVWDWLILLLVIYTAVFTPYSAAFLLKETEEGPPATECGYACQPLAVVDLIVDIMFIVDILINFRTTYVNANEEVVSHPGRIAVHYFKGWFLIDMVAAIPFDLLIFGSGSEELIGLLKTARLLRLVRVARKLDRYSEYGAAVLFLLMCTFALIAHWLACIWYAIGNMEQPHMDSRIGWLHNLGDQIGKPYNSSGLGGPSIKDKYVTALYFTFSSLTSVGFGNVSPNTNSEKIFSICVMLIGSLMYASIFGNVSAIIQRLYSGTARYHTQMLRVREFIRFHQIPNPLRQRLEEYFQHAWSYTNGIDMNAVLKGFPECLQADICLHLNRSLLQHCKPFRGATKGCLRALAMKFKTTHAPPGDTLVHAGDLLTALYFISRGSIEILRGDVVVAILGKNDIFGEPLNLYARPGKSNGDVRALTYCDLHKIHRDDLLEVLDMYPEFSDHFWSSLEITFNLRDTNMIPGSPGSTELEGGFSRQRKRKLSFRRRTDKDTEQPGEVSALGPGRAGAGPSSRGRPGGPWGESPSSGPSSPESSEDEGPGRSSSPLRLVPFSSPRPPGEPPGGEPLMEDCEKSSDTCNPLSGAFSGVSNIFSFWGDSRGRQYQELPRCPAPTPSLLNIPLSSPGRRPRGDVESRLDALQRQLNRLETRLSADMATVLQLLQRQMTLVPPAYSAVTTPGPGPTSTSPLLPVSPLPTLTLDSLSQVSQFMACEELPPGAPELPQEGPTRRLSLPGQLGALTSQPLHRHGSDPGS

| Compound | IC50 [µM] | further results |
| --- | --- | --- |
| COc1ccc(CN(CCN(C)C)c2ccccn2)cc1 [pyrilamine] | ~6 | – |
| prenylamine | – | IC50 (read-out: IC50 (half maximal inhibitory concentration), KCNH2 inhibitors, literature values): ~0.59 µM |
| arsenic trioxide | – | IKr (listed as weak inhibitor of KCNH2, literature value): approximately 300 μmol/l |
| C[C@@H]1CN(c2c(F)c(N)c3c(=O)c(C(=O)O)cn(C4CC4)c3c2F)C[C@H](C)N1 [sparfloxacin] | ~18 | – |
| Cc1cc2c(s1)Nc1ccccc1N=C2N1CCN(C)CC1 [olanzapine] | ~6.01 | – |
